Where two headings read alike, the source gives them in different places.
How the values were obtained:
[1] = system: femoral artery; experiment: Comparative assays: femoral vasodilating action (MVD) in nembutal-anesthetized dogs, I.D. route; format: in vivo; parameters: key to MVD (minimum dose inducing a femoral vasodilating action): (g): no vasodilating action per I.D. route; conditions: for minimal effective dose: Canis lupus familiaris, intraduodenal, read-out: MVD (minimum dose inducing in nembutal-anesthetized dogs a femoral vasodilating action); for therapeutical index (MVD/LD50 ratio): MVD I.D. dogs / LD50 I.V. mice
Source text: (e) minimum dose inducing in nembutalanesthetized dogs a femoral
vasodilating action (tested products being administered per I.D. route).

[2] = in vivo; conditions: mouse, iv, LD-50 I.V. mice
[3] = system: mice; experiment: Toxicity in mice, intraperitoneal route; format: in vivo
[4] = system: nembutal-anesthetized dogs; experiment: Cardiovascular study in nembutal-anesthetized dogs, intraduodenal administration (then I.V.); format: in vivo; conditions: for minimal effective dose: Canis lupus familiaris, intraduodenal
Procedure: (§1) The study of the cardiovascular properties has been performed on nembutal-anesthetized dogs, CRL 41 339 being administered intra-duodenallyin solution in physiological saline (bidistilled water containing 9 g/l of NaCl) at pH 7.5 (the maximum concentration of CRL 41 339 used being of 32.4 mg/ml).
(§2) Three dogs (average weight: 14.3 kg), anesthetized with nembutal, receive CRL 41 339 by intraduodenal administration at successive doses of 0.1 mg/kg, 0.5 mg/kg, 1 mg/kg, 2.5 mg/kg, 5 mg/kg and 10 mg/kg, then two of these dogs receive a supplemental dose of CRL 41 339 (10 mg/kg) by intravenous administration.
(§3) The arterial blood pressure, the heart rate, the blood flow through the femoral artery, the blood flow through the vertebral artery and the rectal and cutaneous temperatures are measured.

[5] = system: isoprenaline; experiment: Effects of isoprenaline after CRL 41 339 in anesthetized dogs; format: in vivo
Procedure: as §1, §2, §3
with 1 μg/kg of isoprenaline, the diastolic blood pressure changes from 117 mm Hg (i.e. about 1.5×10^4 Pa) to 37 mm Hg (i.e. about 4.9×10^3 Pa) after CRL 41 339, instead of changing from 144 mm Hg (i.e. about 1.9×10^4 Pa) to 36 mm Hg (i.e. about 4.8×10^3 Pa) in the control animals (i.e. anesthetized dogs receiving only isoprenaline), and the heart rate changes from 175 beats/minute to 238 beats/minute after CRL 41 339, while in the control animals said heart rate increases from 188 beats/minute to 253 beats/minute.

[6] = system: noradrenaline; experiment: Noradrenaline-induced hypertension after CRL 41 339 in anesthetized dogs; format: in vivo; conditions: for systolic blood pressure with noradrenaline: 2 μg/kg noradrenaline after 19.1 mg/kg I.D. accumulated; for systolic blood pressure before noradrenaline: after 19.1 mg/kg I.D. accumulated
Procedure: as §1, §2, §3
It is also observed that the noradrenaline-induced hypertension is reduced by CRL 41 339 (at an accumulated dose of 19.1 mg/kg I.D.):
with 2 μg/kg of noradrenaline the systolic blood pressure increases from 160 mm Hg (i.e. about 2.1×10^4 Pa) to 253 mm Hg (i.e. about 3.3×10^4 Pa) after administration of CRL 41 339 at an accumulated dose of 19.1 mg/kg I.D., while in the control animals, (anesthetized dogs receiving only noradrenaline) the blood systolic pressure increases from 181 mm Hg (i.e. about 2.4×10^4 Pa) to 301 mm Hg (i.e. about 4×10^4 Pa).

[7] = system: adult human beings; experiment: Clinical assays in adult human beings; format: in vivo; conditions: arteritis manifestations and ulcers of arterial or venous origin in lower limbs
Source text: In clinical trials, good results were obtained on adult human beings after administration of CRL 41 339 as vasodilating agent, in particular in the treatment of (i) arteritis manifestations in lower limbs, and (ii) ulcers of arterial or venous origin in lower limbs.

[8] = system: rabbit ear microcirculation; experiment: Action on rabbit ear microcirculation; format: in vivo; conditions: gastric route, awakened Half Top rabbits
Procedure: […] in an aqueous solution at pH 6.5 (prepared extemporaneously) is administered by gastric route to Half Top rabbit batches (3 males, average weight: […]; and 3 females, average weight 3.3 kg) under a volume of 2 ml/kg. The very same animals used as control animals against themselves receive distilled water per gastric route, under the very same volume. The following parameters are measured: the terminal arteriole diameter, the terminal veinule diameter, the arteriolar pulsatility, the ear cutaneous temperature, the heart rate and the rectal temperature.

[9] = system: femoral artery; experiment: Action on isolated dog vessels: femoral artery; conditions: n=5
Procedure: (§4) Annuli of femoral arteriae and external saphenous veins of nembutal-anesthetized dogs are cut off and placed into aerated (O2 : 96%; CO2 : 4%, by volume) Krebs-Henseleit, kept at 37° C. and subjected to a 0.5 g stretching. These vessels are constricted either with noradrenaline 10^-5 M in the presence of propanolol 10^-6 M, or with KCl 50 mM in the presence of phentolamine 3×10^-6 M. CRL 41 339 is tested at accumulated doses.

[10] = system: external saphenous vein; experiment: Action on isolated dog vessels: external saphenous vein; conditions: n=4
Procedure: as §4

[11] = system: perfused hind quarters of rats; experiment: Action on perfused hind quarters of rats; format: in vivo
[12] = system: femoral artery; experiment: Comparison of salts: femoral artery flow in nembutal-anesthetized dogs, I.A. route; format: in vivo; conditions: Ex 1 at pH 6, Ex 2 and Ex 3 at pH 4, dose 0: 64, 64, 79, average of 5 assays
Procedure: Three dogs anesthetized with nembutal and having an average weight of 12.9 kg are used as control animals vis-a-vis themselves, and are administered per I.A. route in the femoral artery with phenyl-(3-hexamethyleneiminopropyl)-ketone hydrochloride, fumarate and citrate (Ex 1, Code No.: CRL 41 339; Ex 2, Code No.: CRL 41 339A; and respectively Ex 3, code No.: CRL 41 339B), at equimolar doses.

[13] = Solubility in water; format: physicochemical; conditions: white powder, very soluble in water
[14] = system: mice
[15] = system: Salmonella typhimurium
[16] = 10 mg/kg I.V., supplemental to I.D. doses
[17] = after accumulated dose of 19.1 mg/kg I.D.
[18] = KCl 50 mM with phentolamine 3×10^-6 M
[19] = noradrenaline 10^-5 M with propanolol 10^-6 M
[20] = nembutal-anesthetized, noradrenaline-constricted

## COc1cc(OC)c(C(=O)CCCN2CCCC2)c(OC)c1.Cl [A-1, (2,4,6-trimethoxyphenyl)-(3-pyrrolidinopropyl)-ketone hydrochloride]
[1]; dogs, I.D. route
  minimal effective dose: 6 mg/kg
[1]
  therapeutical index (MVD/LD50 ratio): 0.100
[2]
  LD50: 60 mg/kg

## COc1cc(OC)c(C(=O)CCCN2CCCCCC2)c(OC)c1.Cl [A-2, (2,4,6-trimethoxyphenyl)-(3-hexamethyleneiminopropyl)-ketone hydrochloride]
[1]; dogs, I.D. route
  minimal effective dose: 5 mg/kg
[1]
  therapeutical index (MVD/LD50 ratio): 0.053
[2]
  LD50: 96 mg/kg

## COc1cc(OC)c(C(=O)CCCN2CCCCC2)c(OC)c1 [A-3]
[1]; dogs, I.D. route
  MVD (minimum dose inducing a femoral vasodilating action): (g)

## Cl.O=C(CCCN1CCCCCC1)c1ccccc1 [Ex 1, phenyl-(3-hexamethyleneiminopropyl)-ketone hydrochloride]
[3]
  LD-30 (lethal dose for 30% of the treated animals): about 128 mg/kg
  LD-100 (minimum lethal dose for all the treated animals): ≤ 256 mg/kg
  LD-O (maximum non-lethal dose): higher than 64 mg/kg
[4]; [16]
  blood pressure effect of supplemental I.V. dose: hypotension
  heart rate effect of supplemental I.V. dose: bradycardia
[4]; I.D., accumulated dose, read-out: accumulated dose as from which femoral artery flow is highly increased
  minimal effective dose: 4.1 mg/kg
[4]; I.D., single successive dose, read-out: dose as from which femoral artery flow is highly increased
  minimal effective dose: 2.5 mg/kg
[4]; I.D. route
  blood arterial pressure: does not modify
  heart beat: does not modify
  respiration rate: reduces the respiration rate
[4]; I.D., as from the dose of 2.5 mg/kg (accumulated 4.1 mg/kg)
  femoral artery flow: highly increases
[5]; 1 μg/kg isoprenaline after CRL 41 339 (19.1 mg/kg I.D. accumulated), controls 36
  diastolic blood pressure with isoprenaline: 37 mm Hg
[5]; 1 μg/kg isoprenaline after CRL 41 339 (19.1 mg/kg I.D. accumulated), controls 253
  heart rate with isoprenaline: 238 beats/minute
[5]; 1 μg/kg isoprenaline after CRL 41 339 (19.1 mg/kg I.D. accumulated), controls about 4.8×10^3 Pa
  diastolic blood pressure with isoprenaline: about 4.9×10^3 Pa
[5]; after CRL 41 339 (19.1 mg/kg I.D. accumulated), controls 144
  diastolic blood pressure before isoprenaline: 117 mm Hg
[5]; after CRL 41 339 (19.1 mg/kg I.D. accumulated), controls 188
  heart rate before isoprenaline: 175 beats/minute
[5]; after CRL 41 339 (19.1 mg/kg I.D. accumulated), controls about 1.9×10^4 Pa
  diastolic blood pressure before isoprenaline: about 1.5×10^4 Pa
[5]; [17]
  effects of isoprenaline as regards the diastolic blood pressure: not modified
  effects of isoprenaline as regards the heart rate: slightly reduced
[6]; controls 301
  systolic blood pressure with noradrenaline: 253 mm Hg
[6]; controls about 4×10^4 Pa
  systolic blood pressure with noradrenaline: about 3.3×10^4 Pa
[6]; accumulated dose of 19.1 mg/kg I.D.
  noradrenaline-induced hypertension: reduced
[6]; controls 181
  systolic blood pressure before noradrenaline: 160 mm Hg
[6]; controls about 2.4×10^4 Pa
  systolic blood pressure before noradrenaline: about 2.1×10^4 Pa
[1]; I.D. route, vs LL 1656 and CRL 41 080
  vasodilating activity compared with reference compounds: more active as a vasodilating substance per introduodenal route
[1]
  therapeutical index (MVD/LD50 ratio): 0.032
[1]; vs A-1, A-2, A-3
  superiority as regards peripheral vasodilating activity: superiority
[7]
  clinical trials, as vasodilating agent: good results
[8]
  arteriolar pulsatility: stronghly increases
  arteriolar pulsatility/heart rate ratio: stronghly increases
  duration of terminal arteriole dilation: 0.5 h
  ear cutaneous temperature: important and lasting increase
  heart rate: without modifying the heart rate
  terminal arteriole diameter: moderately dilates
  veinular diameter: no action
[9]; Canis lupus familiaris, noradrenaline 10^-5 M with propanolol 10^-6 M, read-out: CI-50 (molar concentration which reduces of 50% the contraction), artery
  IC50: 5.9 µM
[9]; [18]
  action on femoral artery constriction induced by KCl: no action
[9]; [19]
  action on artery constricted by noradrenaline: slakening
[10]; Canis lupus familiaris, noradrenaline 10^-5 M with propanolol 10^-6 M, read-out: CI-50 (molar concentration which reduces of 50% the contraction), vein
  IC50: 130 µM
[10]; [18]
  action on external saphenous vein constriction induced by KCl: no action
[10]; [19]
  action on vein constricted by noradrenaline: slakening
[11]; believed to be involved in the vasodilating activity
  anti-noradrenaline activity: important anti-noradrenaline activity
[11]; [20]
  duration of vasodilating effect: increases with the dose
  vasodilating effect on hind quarters of rats: important vasodilating effect
[12]; dose 10^-5 M
  Femoral flow: 166 mL/min
[12]; dose 10^-6 M
  Femoral flow: 117 mL/min
[12]; dose 10^-7 M
  Femoral flow: 83 mL/min
[13]
  solubility: 100 mg/mL
[14]; mouse, in vivo
  superiority as regards toxicity: superiority
[14]; vs LL 1656 and CRL 41 080
  toxicity compared with reference compounds: less toxic
[15]
  mutagenic activity: devoid of mutagenic activity
[2]
  LD50: 128 mg/kg

## O=C(CCCN1CCCCCC1)c1ccccc1.O=C(O)/C=C/C(=O)O [Ex 2, phenyl(3-hexamethyleneiminopropyl)-ketone fumarate]
[12]; dose 10^-5 M
  Femoral flow: 168 mL/min
[12]; dose 10^-6 M
  Femoral flow: 117 mL/min
[12]; dose 10^-7 M
  Femoral flow: 76 mL/min

## O=C(CCCN1CCCCCC1)c1ccccc1.O=C(O)CC(O)(CC(=O)O)C(=O)O [Ex 3, phenyl(3-hexamethyleneiminopropyl)-ketone citrate]
[12]; dose 10^-5 M
  Femoral flow: 197 mL/min
[12]; dose 10^-6 M
  Femoral flow: 127 mL/min
[12]; dose 10^-7 M
  Femoral flow: 90 mL/min
